# System: yeast genes (level of expressed mRNA)
# Test: DNA chip analysis of expressed mRNA of yeast genes after 2 h culture with a toxic chemical substance
# Format: cell-based, Saccharomyces cerevisiae S288C
# Method in brief: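 Values are treated-to-control fluorescence ratios from a whole-yeast-genome DNA chip (65° C, over 12 h hybridization) using Cy3/Cy5-labelled cDNA from mRNA. Log-phase S288C cells in YPD at 25° C were exposed 2 h to a toxicant at sublethal, growth-inhibiting concentration.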
compound,measurement,setting,value
"O=[N+]([O-])c1cc[n+]([O-])c2ccccc12 [(5), 4-nitroquinolin-N-oxide]",The level of expressed mRNA in the presence of chemical substance/The level of expressed mRNA in the absence of chemical substance,yeast gene YKL013C,1.9
same,The level of expressed mRNA in the presence of chemical substance/The level of expressed mRNA in the absence of chemical substance,yeast gene YKL039W,0.7
same,The level of expressed mRNA in the presence of chemical substance/The level of expressed mRNA in the absence of chemical substance,yeast gene YKL041W,1.3
same,The level of expressed mRNA in the presence of chemical substance/The level of expressed mRNA in the absence of chemical substance,yeast gene YKL096W,0.6
same,The level of expressed mRNA in the presence of chemical substance/The level of expressed mRNA in the absence of chemical substance,yeast gene YKL139W,2.8
same,The level of expressed mRNA in the presence of chemical substance/The level of expressed mRNA in the absence of chemical substance,yeast gene YKL165C,0.9
same,The level of expressed mRNA in the presence of chemical substance/The level of expressed mRNA in the absence of chemical substance,yeast gene YKL193C,1.1
same,The level of expressed mRNA in the presence of chemical substance/The level of expressed mRNA in the absence of chemical substance,yeast gene YLR120C,1.1
same,The level of expressed mRNA in the presence of chemical substance/The level of expressed mRNA in the absence of chemical substance,yeast gene YLR136C,1.6
same,The level of expressed mRNA in the presence of chemical substance/The level of expressed mRNA in the absence of chemical substance,yeast gene YLR178C,1.0
same,The level of expressed mRNA in the presence of chemical substance/The level of expressed mRNA in the absence of chemical substance,yeast gene YLR250W,1.4
same,The level of expressed mRNA in the presence of chemical substance/The level of expressed mRNA in the absence of chemical substance,yeast gene YLR327C,1.3
same,The level of expressed mRNA in the presence of chemical substance/The level of expressed mRNA in the absence of chemical substance,yeast gene YLR356W,1.1
same,The level of expressed mRNA in the presence of chemical substance/The level of expressed mRNA in the absence of chemical substance,yeast gene YLR362W,1.5
same,The level of expressed mRNA in the presence of chemical substance/The level of expressed mRNA in the absence of chemical substance,yeast gene YLR391W,1.2
same,The level of expressed mRNA in the presence of chemical substance/The level of expressed mRNA in the absence of chemical substance,yeast gene YLR429W,1.4
same,The level of expressed mRNA in the presence of chemical substance/The level of expressed mRNA in the absence of chemical substance,yeast gene YMR004W,1.0
same,The level of expressed mRNA in the presence of chemical substance/The level of expressed mRNA in the absence of chemical substance,yeast gene YMR094W,0.9
same,The level of expressed mRNA in the presence of chemical substance/The level of expressed mRNA in the absence of chemical substance,yeast gene YMR104C,0.7
same,The level of expressed mRNA in the presence of chemical substance/The level of expressed mRNA in the absence of chemical substance,yeast gene YMR219W,1.6
same,The level of expressed mRNA in the presence of chemical substance/The level of expressed mRNA in the absence of chemical substance,yeast gene YMR226C,0.9
same,The level of expressed mRNA in the presence of chemical substance/The level of expressed mRNA in the absence of chemical substance,yeast gene YMR275C,0.7
same,The level of expressed mRNA in the presence of chemical substance/The level of expressed mRNA in the absence of chemical substance,yeast gene YMR276W,1.3
same,The level of expressed mRNA in the presence of chemical substance/The level of expressed mRNA in the absence of chemical substance,yeast gene YNL006W,0.9
same,The level of expressed mRNA in the presence of chemical substance/The level of expressed mRNA in the absence of chemical substance,yeast gene YNL007C,1.2
same,The level of expressed mRNA in the presence of chemical substance/The level of expressed mRNA in the absence of chemical substance,yeast gene YNL093W,1.2
same,The level of expressed mRNA in the presence of chemical substance/The level of expressed mRNA in the absence of chemical substance,yeast gene YNL333W,1.5
same,The level of expressed mRNA in the presence of chemical substance/The level of expressed mRNA in the absence of chemical substance,yeast gene YNR010W,1.8
same,The level of expressed mRNA in the presence of chemical substance/The level of expressed mRNA in the absence of chemical substance,yeast gene YNR069C,1.4
same,The level of expressed mRNA in the presence of chemical substance/The level of expressed mRNA in the absence of chemical substance,yeast gene YOL013C,0.7
same,The level of expressed mRNA in the presence of chemical substance/The level of expressed mRNA in the absence of chemical substance,yeast gene YOL164W,1.6
same,The level of expressed mRNA in the presence of chemical substance/The level of expressed mRNA in the absence of chemical substance,yeast gene YOR036W,1.1
same,The level of expressed mRNA in the presence of chemical substance/The level of expressed mRNA in the absence of chemical substance,yeast gene YOR117W,1.2
same,The level of expressed mRNA in the presence of chemical substance/The level of expressed mRNA in the absence of chemical substance,yeast gene YOR124C,1.1
same,The level of expressed mRNA in the presence of chemical substance/The level of expressed mRNA in the absence of chemical substance,yeast gene YOR132W,1.1
same,The level of expressed mRNA in the presence of chemical substance/The level of expressed mRNA in the absence of chemical substance,yeast gene YOR157C,0.7
same,The level of expressed mRNA in the presence of chemical substance/The level of expressed mRNA in the absence of chemical substance,yeast gene YOR181W,0.7
same,The level of expressed mRNA in the presence of chemical substance/The level of expressed mRNA in the absence of chemical substance,yeast gene YOR185C,1.2
same,The level of expressed mRNA in the presence of chemical substance/The level of expressed mRNA in the absence of chemical substance,yeast gene YOR198C,0.8
same,The level of expressed mRNA in the presence of chemical substance/The level of expressed mRNA in the absence of chemical substance,yeast gene YOR259C,2.0
same,The level of expressed mRNA in the presence of chemical substance/The level of expressed mRNA in the absence of chemical substance,yeast gene YOR261C,1.5
same,The level of expressed mRNA in the presence of chemical substance/The level of expressed mRNA in the absence of chemical substance,yeast gene YOR288C,1.1
same,The level of expressed mRNA in the presence of chemical substance/The level of expressed mRNA in the absence of chemical substance,yeast gene YOR355W,1.0
same,The level of expressed mRNA in the presence of chemical substance/The level of expressed mRNA in the absence of chemical substance,yeast gene YOR383C,0.9
same,The level of expressed mRNA in the presence of chemical substance/The level of expressed mRNA in the absence of chemical substance,yeast gene YPL089C,1.4
same,The level of expressed mRNA in the presence of chemical substance/The level of expressed mRNA in the absence of chemical substance,yeast gene YPL109C,1.2
same,The level of expressed mRNA in the presence of chemical substance/The level of expressed mRNA in the absence of chemical substance,yeast gene YPL149W,0.8
same,The level of expressed mRNA in the presence of chemical substance/The level of expressed mRNA in the absence of chemical substance,yeast gene YPL154C,1.2
same,The level of expressed mRNA in the presence of chemical substance/The level of expressed mRNA in the absence of chemical substance,yeast gene YPR103W,1.7
same,The level of expressed mRNA in the presence of chemical substance/The level of expressed mRNA in the absence of chemical substance,yeast gene YPR108W,1.3
